Assay results published in patent US11524940B1, “Inhibitors of cysteine proteases and methods of use thereof” (priority 2020, dated 2022).
Read-outs that look alike come from different tables or passages of the source.

Tests used:
[1] = molecular target: 229E Mpro (Human coronavirus 229E (HCoV-229E), UniProt P0C6X1); experiment: 229E Mpro activity; format: biochemical
Procedure: Compounds are assayed using standard methods to assess compound activity and IC50. […] The assay buffer contains 20 mM of Tris-HCl (pH 7.3), 100 mM of NaCl, 1 mM of EDTA, 5mM of TCEP and 0.1% BSA.

[2] = molecular target: SARS-CoV2 Mpro (Severe acute respiratory syndrome coronavirus 2 (2019-nCoV) (SARS-CoV-2), UniProt P0DTD1); experiment: COVID-19 (SARS-CoV2) Mpro enzymatic assay; format: biochemical; settings: 25 nM Mpro, 25 μM substrate

Chain of 229E Mpro (P0C6X1 2966-3267 limits assumed): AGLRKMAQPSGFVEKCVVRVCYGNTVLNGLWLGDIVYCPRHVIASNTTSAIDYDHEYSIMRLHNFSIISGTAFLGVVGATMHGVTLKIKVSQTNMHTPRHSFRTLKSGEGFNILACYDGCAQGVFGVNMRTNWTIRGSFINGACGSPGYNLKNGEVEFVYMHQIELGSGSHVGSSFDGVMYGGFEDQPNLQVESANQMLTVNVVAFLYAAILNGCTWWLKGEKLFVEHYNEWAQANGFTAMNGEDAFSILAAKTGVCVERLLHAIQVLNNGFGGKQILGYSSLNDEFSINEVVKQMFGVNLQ

Row | Structure (SMILES) | EC50 ([1]; read-out: 229E Mpro EC50) [µM] | IC50 [2] [µM] | EC50 ([1]; 229E Mpro EC50) [µM]
1 | COc1ccc(Cl)c2[nH]c(C(=O)N3CC4(CCCCC4)CC3C(=O)NC(C#N)C[C@@H]3CCCNC3=O)cc12 (single isomer, unassigned) [902 (Isomer 2)] | 10 to 30 | 2 to 10 | 
2 | N#C[C@H](C[C@@H]1CCCNC1=O)NC(=O)C1CC2(CCC2)CN1C(=O)c1cc2c(Cl)cccc2[nH]1 (single isomer, unassigned) [803 (Isomer 2)] | > 30 | > 30 | 
3 | N#C[C@H](C[C@@H]1CCCNC1=O)NC(=O)C1CC2(CCC(F)(F)CC2)CN1C(=O)c1cc2cccc(Cl)c2[nH]1 (single isomer, unassigned) [805 (Isomer 1)] | > 30 | 10 to 30 | 
4 | COc1ccc(Cl)c2[nH]c(C(=O)N3CC4(CCCCC4)CC3C(=O)N[C@H](C#N)C[C@@H]3CCNC3=O)cc12 (single isomer, unassigned) [882 (Isomer 2)] | 10 to 30 | 10 to 30 | 
5 | N#C[C@H](C[C@@H]1CCNC1=O)NC(=O)C1CC2(CCC2)CN1C(=O)c1cc2ccc(Cl)c(Cl)c2[nH]1 (single isomer, unassigned) [814 (Isomer 1)] | > 30 | > 30 | 
6 | COc1cccc2[nH]c(C(=O)N3CC4(CCC(F)(F)CC4)CC3C(=O)N[C@H](C#N)C[C@@H]3CCCNC3=O)cc12 (single isomer, unassigned) [982 (Isomer 2)] | > 30 | > 30 | 
7 | COc1cccc2[nH]c(C(=O)N3CC4(CCC4)CC3C(=O)N[C@H](C#N)C[C@@H]3CCCNC3=O)cc12 (single isomer, unassigned) [719A (Isomer 1)] | 10 to 30 | 10 to 30 | 
8 | N#C[C@H](C[C@@H]1CCCNC1=O)NC(=O)C1CC2(CCC2)CN1C(=O)c1cc2c(Cl)cccc2[nH]1 (single isomer, unassigned) [803 (Isomer 3)] | < 2 | < 2 | 
9 | COc1cccc2[nH]c(C(=O)N3CC4(CCCCC4)CC3C(=O)N[C@H](C#N)CC3CCC(C)(C)NC3=O)cc12 (single isomer, unassigned) [1111 (Isomer 4)] | > 30 | > 30 | 
10 | CC1(C)CC(C[C@@H](C#N)NC(=O)C2CC3(CCCCC3)CN2C(=O)c2cc3cccc(Cl)c3[nH]2)C(=O)N1 (single isomer, unassigned) [930 (Isomer 5)] | > 30 | 10 to 30 | 
11 | COc1cccc2[nH]c(C(=O)N3NCCC[C@H]3C(=O)N[C@H](C#N)C[C@@H]3CCNC3=O)cc12 [Compound 199] | > 30 | 10 to 30 | 
12 | COc1cc(Cl)c2[nH]c(C(=O)N3CC4(CCCCC4)CC3C(=O)N[C@H](C#N)C[C@@H]3CCCNC3=O)cc2c1 (single isomer, unassigned) [1147A (Isomer 1)] | < 2 | < 2 | 
13 | COc1ccc(Cl)c2[nH]c(C(=O)N3CC4(CCCCC4)CC3C(=O)N[C@H](C#N)C[C@@H]3CCNC3=O)cc12 (single isomer, unassigned) [882 (Isomer 1)] | < 2 | < 2 | 
14 | COCCOCCOC(=O)N[C@@H](CC1CC1)C(=O)N[C@H](C#N)C[C@@H]1CCNC1=O [Compound 671, 2-(2-methoxyethoxy)ethyl N-[(1S)-2-[[(1S)-1-cyano-2-[(3S)-2-oxopyrrolidin-3-yl]ethyl]amino]-1-(cyclopropylmethyl)-2-oxo-ethyl]carbamate] | 10 to 30 | 2 to 10 | 
15 | CC1(C)CCC(C[C@@H](C#N)NC(=O)C2CC3(CCCCC3)CN2C(=O)c2cc3cccc(Cl)c3[nH]2)C(=O)N1 (single isomer, unassigned) [928 (Isomer 4)] | > 30 | 2 to 10 | 
16 | COC(=O)NS(=O)(=O)n1nccc1C(=O)N[C@@H](CC1CC1)C(=O)N[C@H](C#N)C[C@@H]1CCCNC1=O [Compound 1258] | 2 to 10 | 2 to 10 | 
17 | CC1(C)CCC(C[C@@H](C#N)NC(=O)C2CC3(CCCCC3)CN2C(=O)c2cc3cccc(Cl)c3[nH]2)C(=O)N1 (single isomer, unassigned) [928 (Isomer 3)] | 2 to 10 | < 2 | 
18 | CC1(C)CC(C[C@@H](C#N)NC(=O)[C@H](CC2CC2)NC(=O)c2cc3cccc(Cl)c3[nH]2)C(=O)N1 (single isomer, unassigned) [1053 (Isomer 1)] | > 30 | 2 to 10 | 
19 | N#C[C@H](C[C@@H]1CCCNC1=O)NC(=O)C1CC2(CCC2)CN1C(=O)c1cc2c(Cl)cccc2[nH]1 (single isomer, unassigned) [803 (Isomer 1)] | > 30 | > 30 | 
20 | COc1cccc2[nH]c(C(=O)N[C@@H](Cc3cccnc3)C(=O)N[C@H](C#N)C[C@@H]3CCNC3=O)cc12 [Compound 191, N-[(1S)-2-[[(1S)-1-cyano-2-[(3S)-2-oxopyrrolidin-3-yl]ethyl]amino]-2-oxo-1-(3-pyridylmethyl)ethyl]-4-methoxy-1H-indole-2-carboxamide] | > 30 | 2 to 10 | 
21 | CC(C)(C)OC(=O)N1CCCCC12CCN(C(CC1CC1)C(=O)N[C@H](C#N)C[C@@H]1CCNC1=O)C2=O (single isomer, unassigned) [473 (Isomer 1)] | > 30 | > 30 | 

Row | Structure (SMILES) | EC50 ([1]; read-out: 229E Mpro EC50) [µM] | IC50 [2] [µM] | EC50 ([1]; 229E Mpro EC50) [µM]
22 | N#C[C@H](C[C@@H]1CCCNC1=O)NC(=O)C1CC2(CCCCC2)CN1C(=O)c1cc2c(Cl)cccc2[nH]1 (single isomer, unassigned) [801 (Isomer 1)] | < 2 | < 2 | 
23 | COc1cccc2[nH]c(C(=O)N3C[C@H](C)C[C@H]3C(=O)N[C@H](C#N)C[C@@H]3CCNC3=O)cc12 [Compound 413] | < 2 | 2 to 10 | 
24 | COc1cccc2[nH]c(C(=O)N3CC4(CCCCC4)CC3C(=O)N[C@H](C#N)CC3CCC(C)(C)NC3=O)cc12 (single isomer, unassigned) [1111 (Isomer 1)] | 2 to 10 | < 2 | 
25 | COc1cccc2[nH]c(C(=O)N3CC4(CCC(F)(F)CC4)CC3C(=O)N[C@H](C#N)C[C@@H]3CCCNC3=O)cc12 (single isomer, unassigned) [982 (Isomer 1)] | < 2 | < 2 | 
26 | N#C[C@H](C[C@@H]1CCCNC1=O)NC(=O)C1CC2(CCC2)CN1C(=O)c1cc2ccc(Cl)cc2[nH]1 (single isomer, unassigned) [791 (Isomer 2)] | < 2 | < 2 | 
27 | N#C[C@@]1(NC(=O)[C@H](CC2CC2)NC(=O)OCc2ccccc2)C[C@@H]2CC[C@H]1[C@@H]1C(=O)NC(=O)[C@H]21 (single isomer, unassigned) [495 (Isomer 2)] | > 30 | > 30 | 
28 | COc1cc(Cl)cc2[nH]c(C(=O)N3CC4(CCCCC4)CC3C(=O)N[C@H](C#N)C[C@@H]3CCCNC3=O)cc12 (single isomer, unassigned) [908 (Isomer 2)] | 2 to 10 | 2 to 10 | 
29 | COc1ccc2[nH]c(C(=O)N3CC4(CCC4)CC3C(=O)N[C@H](C#N)C[C@@H]3CCNC3=O)cc2c1Cl (single isomer, unassigned) [886 (Isomer 2)] | < 2 | < 2 | 
30 | COc1ccc2[nH]c(C(=O)N3CC4(CCC4)CC3C(=O)N[C@H](C#N)C[C@@H]3CCNC3=O)cc2c1Cl (single isomer, unassigned) [886 (Isomer 1)] | > 30 | > 30 | 
31 | N#C[C@H](C[C@@H]1CCCNC1=O)NC(=O)C1CC2(CCCCC2)CN1C(=O)c1cc2c(Cl)cccc2[nH]1 (single isomer, unassigned) [801 (Isomer 2)] | 10 to 30 | 10 to 30 | 
32 | N#C[C@H](C[C@@H]1CCNC1=O)NC(=O)C1CC2(CCC2)CN1C(=O)c1cc2cccc(Cl)c2[nH]1 (single isomer, unassigned) [988 (Isomer 2)] | < 2 | < 2 | 
33 | CC1(C)CC(C[C@@H](C#N)NC(=O)C2CC3(CCCCC3)CN2C(=O)c2cc3cccc(Cl)c3[nH]2)C(=O)N1 (single isomer, unassigned) [930 (Isomer 6)] | < 2 | < 2 | 
34 | N#C[C@H](C[C@@H]1CCCNC1=O)NC(=O)C1CC2(CCCCC2)CN1C(=O)c1cc2cccc(Cl)c2[nH]1 (single isomer, unassigned) [731 (Isomer 2)] | 10 to 30 | 2 to 10 | 
35 | COc1cccc2[nH]c(C(=O)N[C@@H](CC3CC3(F)F)C(=O)N[C@H](C#N)C[C@@H]3CCCNC3=O)cc12 (single isomer, unassigned) [1059 (Isomer 1)] | < 2 | < 2 | 
36 | COc1cccc2[nH]c(C(=O)N[C@@H](CC3CC3)C(=O)N[C@H](C#N)Cc3ccccn3)cc12 [Compound 439, N-[(1S)-2-[[(1S)-1-cyano-2-(2-pyridyl)ethyl]amino]-1-(cyclopropylmethyl)-2-oxo-ethyl]-4-methoxy-1H-indole-2-carboxamide] | > 30 | 10 to 30 | 
37 | N#C[C@H](C[C@@H]1CCCNC1=O)NC(=O)C1CC2(CN1C(=O)c1cc3cccc(Cl)c3[nH]1)CC(F)(F)C2 (single isomer, unassigned) [743 (Isomer 1)] |  | > 30 | > 30
38 | COc1cccc2[nH]c(C(=O)N3CC4(CCCCC4)CC3C(=O)N[C@H](C#N)CC3CCC(C)(C)NC3=O)cc12 (single isomer, unassigned) [1111 (Isomer 2)] | > 30 | > 30 | 
39 | N#C[C@H](C[C@@H]1CCCNC1=O)NC(=O)C1CC2(CN1C(=O)c1cc3cccc(Cl)c3[nH]1)CC(F)(F)C2 (single isomer, unassigned) [743 (Isomer 2)] | < 2 | < 2 | 
40 | COc1cccc2[nH]c(C(=O)N3Cc4ccccc4C3C(=O)N[C@H](C#N)C[C@@H]3CCNC3=O)cc12 (single isomer, unassigned) [429A (Isomer 2)] | > 30 | > 30 | 
41 | CC1(C)CC(C[C@@H](C#N)NC(=O)[C@H](CC2CC2)NC(=O)c2cc3cccc(Cl)c3[nH]2)C(=O)N1 (single isomer, unassigned) [1053 (Isomer 4)] |  | < 2 | 
42 | COc1cc(Cl)c2[nH]c(C(=O)N[C@@H](CC(C)(C)C)C(=O)N[C@H](C#N)C[C@@H]3CCCNC3=O)cc2c1 [Compound 810, 7-chloro-N-[(1S)-1-[[(1S)-1-cyano-2-[(3S)-2-oxo-3-piperidyl]ethyl]carbamoyl]-3,3-dimethyl-butyl]-5-methoxy-1H-indole-2-carboxamide] | < 2 |  | 
